# Assay results: PMC10620772, “Design, synthesis, and biological evaluation of new pyrimidine-5-carbonitrile derivatives as novel anti-cancer, dual EGFR^WT/COX-2 inhibitors with docking studies” (RSC Advances, 2023)
# Assays:
# Format in all cases: cell-based, human
# [1] = system: CCRF-CEM; test: NCI60 antitumor screening; conditions: 10 μM one-dose
# [2] = system: HL-60(TB); test: NCI60 antitumor screening; conditions: 10 μM one-dose
# [3] = system: K-562; test: NCI60 antitumor screening; conditions: 10 μM one-dose
# [4] = system: MOLT-4; test: NCI60 antitumor screening; conditions: 10 μM one-dose
# [5] = system: RPMI-8226; test: NCI60 antitumor screening; conditions: 10 μM one-dose
# [6] = system: SR; test: NCI60 antitumor screening; conditions: 10 μM one-dose
# [7] = system: A549/ATCC; test: NCI60 antitumor screening; conditions: 10 μM one-dose
# [8] = system: EKVX; test: NCI60 antitumor screening; conditions: 10 μM one-dose
# [9] = system: HOP-62; test: NCI60 antitumor screening; conditions: 10 μM one-dose
# [10] = system: HOP-92; test: NCI60 antitumor screening; conditions: 10 μM one-dose
# [11] = system: NCI-H226; test: NCI60 antitumor screening; conditions: 10 μM one-dose
# [12] = system: NCI-H23; test: NCI60 antitumor screening; conditions: 10 μM one-dose
# [13] = system: NCI-H322M; test: NCI60 antitumor screening; conditions: 10 μM one-dose
# [14] = system: NCI-H460; test: NCI60 antitumor screening; conditions: 10 μM one-dose
# [15] = system: NCI-H522; test: NCI60 antitumor screening; conditions: 10 μM one-dose
# [16] = system: COLO 205; test: NCI60 antitumor screening; conditions: 10 μM one-dose
# [17] = system: HCC-2998; test: NCI60 antitumor screening; conditions: 10 μM one-dose
# [18] = system: HCT-116; test: NCI60 antitumor screening; conditions: 10 μM one-dose
# [19] = system: HCT-15; test: NCI60 antitumor screening; conditions: 10 μM one-dose
# [20] = system: HT29; test: NCI60 antitumor screening; conditions: 10 μM one-dose
# [21] = system: KM12; test: NCI60 antitumor screening; conditions: 10 μM one-dose
# [22] = system: SW-620; test: NCI60 antitumor screening; conditions: 10 μM one-dose
# [23] = system: SF-268; test: NCI60 antitumor screening; conditions: 10 μM one-dose
# [24] = system: SF-295; test: NCI60 antitumor screening; conditions: 10 μM one-dose
# [25] = system: SF-539; test: NCI60 antitumor screening; conditions: 10 μM one-dose
# [26] = system: SNB-19; test: NCI60 antitumor screening; conditions: 10 μM one-dose
# [27] = system: SNB-75; test: NCI60 antitumor screening; conditions: 10 μM one-dose
# [28] = system: U251; test: NCI60 antitumor screening; conditions: 10 μM one-dose
# [29] = system: LOX IMVI; test: NCI60 antitumor screening; conditions: 10 μM one-dose
# [30] = system: MALME-3M; test: NCI60 antitumor screening; conditions: 10 μM one-dose
# [31] = system: M14; test: NCI60 antitumor screening; conditions: 10 μM one-dose
# [32] = system: MDA-MB-435; test: NCI60 antitumor screening; conditions: 10 μM one-dose
# [33] = system: SK-MEL-2; test: NCI60 antitumor screening; conditions: 10 μM one-dose
# [34] = system: SK-MEL-28; test: NCI60 antitumor screening; conditions: 10 μM one-dose
# [35] = system: SK-MEL-5; test: NCI60 antitumor screening; conditions: 10 μM one-dose
# [36] = system: UACC-257; test: NCI60 antitumor screening; conditions: 10 μM one-dose
# [37] = system: UACC-62; test: NCI60 antitumor screening; conditions: 10 μM one-dose
# [38] = system: IGROV1; test: NCI60 antitumor screening; conditions: 10 μM one-dose
# [39] = system: OVCAR-3; test: NCI60 antitumor screening; conditions: 10 μM one-dose
# [40] = system: OVCAR-4; test: NCI60 antitumor screening; conditions: 10 μM one-dose
# [41] = system: OVCAR-5; test: NCI60 antitumor screening; conditions: 10 μM one-dose
# [42] = system: OVCAR-8; test: NCI60 antitumor screening; conditions: 10 μM one-dose
# [43] = system: NCI/ADR-RES; test: NCI60 antitumor screening; conditions: 10 μM one-dose
# [44] = system: SK-OV-3; test: NCI60 antitumor screening; conditions: 10 μM one-dose
# [45] = system: 786–0; test: NCI60 antitumor screening; conditions: 10 μM one-dose
# [46] = system: A498; test: NCI60 antitumor screening; conditions: 10 μM one-dose
# [47] = system: ACHN; test: NCI60 antitumor screening; conditions: 10 μM one-dose
# [48] = system: CAKI-1; test: NCI60 antitumor screening; conditions: 10 μM one-dose
# [49] = system: RXF 393; test: NCI60 antitumor screening; conditions: 10 μM one-dose
# [50] = system: SN12C; test: NCI60 antitumor screening; conditions: 10 μM one-dose
# [51] = system: TK-10; test: NCI60 antitumor screening; conditions: 10 μM one-dose
# [52] = system: UO-31; test: NCI60 antitumor screening; conditions: 10 μM one-dose
# [53] = system: PC-3; test: NCI60 antitumor screening; conditions: 10 μM one-dose
# [54] = system: DU-145; test: NCI60 antitumor screening; conditions: 10 μM one-dose
# [55] = system: MCF7; test: NCI60 antitumor screening; conditions: 10 μM one-dose
# [56] = system: MDA-MB-231/ATCC; test: NCI60 antitumor screening; conditions: 10 μM one-dose
# [57] = system: HS 578T; test: NCI60 antitumor screening; conditions: 10 μM one-dose
# [58] = system: BT-549; test: NCI60 antitumor screening; conditions: 10 μM one-dose
# [59] = system: T-47D; test: NCI60 antitumor screening; conditions: 10 μM one-dose
# [60] = system: MDA-MB-468; test: NCI60 antitumor screening; conditions: 10 μM one-dose
# [61] = system: NCI60 cell lines panel; test: NCI60 antitumor screening, full panel; conditions: 10 μM one-dose, mean over NCI60
# Summary of the method: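 Percent growth inhibition (GI%) was recorded for each of the NCI60 lines, spanning leukaemia, lung, colon, CNS, melanoma, ovarian, renal, prostate and breast cancers, after exposure to compounds at one concentration, 10 μM.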
compound,measurement,setting,value
"Cc1ccc(CSc2nc(Cl)c(C#N)c(-c3ccc(F)cc3)n2)cc1 [3d, 4-Chloro-6-(4-fluorophenyl)-2-((4-methylbenzyl)thio)pyrimidine-5-carbonitrile]",GI%,[1],29.71%
same,GI%,[2],51.77%
same,GI%,[3],42.83%
same,GI%,[4],29.08%
same,GI%,[5],25.03%
same,GI%,[6],— (GI% < 10)
same,GI%,[7],16.81%
same,GI%,[8],20.92%
same,GI%,[9],— (GI% < 10)
same,GI%,[10],34.25%
same,GI%,[11],37.93%
same,GI%,[12],— (GI% < 10)
same,GI%,[13],— (GI% < 10)
same,GI%,[14],— (GI% < 10)
same,GI%,[15],29.73%
same,GI%,[16],— (GI% < 10)
same,GI%,[17],— (GI% < 10)
same,GI%,[18],25.73%
same,GI%,[19],24.97%
same,GI%,[20],51.51%
same,GI%,[21],19.05%
same,GI%,[22],11.21%
same,GI%,[23],12.95%
same,GI%,[24],11.51%
same,GI%,[25],15.58%
same,GI%,[26],— (GI% < 10)
same,GI%,[27],— (GI% < 10)
same,GI%,[28],15.75%
same,GI%,[29],— (GI% < 10)
same,GI%,[30],— (GI% < 10)
same,GI%,[31],— (GI% < 10)
same,GI%,[32],— (GI% < 10)
same,GI%,[33],— (GI% < 10)
same,GI%,[34],— (GI% < 10)
same,GI%,[35],15.98%
same,GI%,[36],— (GI% < 10)
same,GI%,[37],17.58%
same,GI%,[38],— (GI% < 10)
same,GI%,[39],— (GI% < 10)
same,GI%,[40],14.97%
same,GI%,[41],— (GI% < 10)
same,GI%,[42],— (GI% < 10)
same,GI%,[43],14.93%
same,GI%,[44],— (GI% < 10)
same,GI%,[45],12.30%
same,GI%,[46],— (GI% < 10)
same,GI%,[47],— (GI% < 10)
same,GI%,[48],16.99%
same,GI%,[49],12.49%
same,GI%,[50],27.59%
same,GI%,[51],— (GI% < 10)
same,GI%,[52],17.01%
same,GI%,[53],35.47%
same,GI%,[54],18.41%
same,GI%,[55],12.55%
same,GI%,[56],— (GI% < 10)
same,GI%,[57],— (GI% < 10)
same,GI%,[58],18.08%
same,GI%,[59],46.84%
same,GI%,[60],— (GI% < 10)
same,Mean GI%,[61],12.62%
